Laboratory results taken from PubChem BioAssay (NCI).
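48-hour exposure; five concentrations; linearly interpolated endpoints. GI50 = concentration required for 50% inhibition of growth. TGI is the concentration that stops growth completely.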

Tests used:
Experiment in all cases: NCI-60 cell line screen, 48 h
786-0 renal = tested on: 786-0 renal
A498 renal = tested on: A498 renal
A549 NSCLC = tested on: A549 NSCLC
ACHN renal = tested on: ACHN renal
CAKI-1 renal = tested on: CAKI-1 renal
CCRF-CEM leukemia = tested on: CCRF-CEM leukemia
COLO 205 colon = tested on: COLO 205 colon
DU-145 prostate = tested on: DU-145 prostate
EKVX NSCLC = tested on: EKVX NSCLC
HCC-2998 colon = tested on: HCC-2998 colon
HCT-116 colon = tested on: HCT-116 colon
HCT-15 colon = tested on: HCT-15 colon
HL-60(TB) leukemia = tested on: HL-60(TB) leukemia
HOP-62 NSCLC = tested on: HOP-62 NSCLC
HOP-92 NSCLC = tested on: HOP-92 NSCLC
HS 578T breast = tested on: HS 578T breast
HT29 colon = tested on: HT29 colon
IGROV1 ovarian = tested on: IGROV1 ovarian
K-562 leukemia = tested on: K-562 leukemia
KM12 colon = tested on: KM12 colon
LOX IMVI melanoma = tested on: LOX IMVI melanoma
M14 melanoma = tested on: M14 melanoma
MALME-3M melanoma = tested on: MALME-3M melanoma
MCF7 breast = tested on: MCF7 breast
MDA-MB-231 breast = tested on: MDA-MB-231 breast
MDA-MB-435 = tested on: MDA-MB-435
MOLT-4 leukemia = tested on: MOLT-4 leukemia
NCI-H226 lung = tested on: NCI-H226 lung
NCI-H23 lung = tested on: NCI-H23 lung

**Q.** Which GI50 (786-0 renal) does the source give for `CC/C=C\C[C@H](O)C/C=C1/C(=O)C=C[C@@H]1C/C=C\CCCC(=O)N(C)C` here?
**A.** 0.504 µM

**Q.** What about the TGI (786-0 renal) of the same compound?
**A.** 2.09 µM

**Q.** And the GI50 (A498 renal)?
**A.** 2.56 µM

**Q.** And the TGI (A498 renal)?
**A.** 4.46 µM

**Q.** And the GI50 (A549 NSCLC)?
**A.** 3.01 µM

**Q.** What about the TGI (A549 NSCLC) of the same compound?
**A.** 11.3 µM

**Q.** What about the GI50 (ACHN renal) of the same compound?
**A.** 1.45 µM

**Q.** What about the TGI (ACHN renal) of the same compound?
**A.** 3.43 µM

**Q.** What about the GI50 (CAKI-1 renal) of the same compound?
**A.** 1.22 µM

**Q.** What about the TGI (CAKI-1 renal) of the same compound?
**A.** 2.67 µM

**Q.** What about the GI50 (CCRF-CEM leukemia) of the same compound?
**A.** 0.817 µM

**Q.** And the TGI (CCRF-CEM leukemia)?
**A.** 5.61 µM

**Q.** What about the GI50 (COLO 205 colon) of the same compound?
**A.** 1.45 µM

**Q.** And the TGI (COLO 205 colon)?
**A.** 3.3 µM

**Q.** What about the GI50 (DU-145 prostate) of the same compound?
**A.** 3.27 µM

**Q.** What about the TGI (DU-145 prostate) of the same compound?
**A.** 15.4 µM

**Q.** What about the GI50 (EKVX NSCLC) of the same compound?
**A.** 3.92 µM

**Q.** And the TGI (EKVX NSCLC)?
**A.** 15.6 µM

**Q.** What about the GI50 (HCC-2998 colon) of the same compound?
**A.** 1.77 µM

**Q.** And the TGI (HCC-2998 colon)?
**A.** 3.2 µM

**Q.** And the GI50 (HCT-116 colon)?
**A.** 0.44 µM

**Q.** And the TGI (HCT-116 colon)?
**A.** 1.68 µM

**Q.** And the GI50 (HCT-15 colon)?
**A.** 1.29 µM

**Q.** And the TGI (HCT-15 colon)?
**A.** 5.87 µM

**Q.** And the GI50 (HL-60(TB) leukemia)?
**A.** 2.27 µM

**Q.** And the TGI (HL-60(TB) leukemia)?
**A.** 13.6 µM

**Q.** What about the GI50 (HOP-62 NSCLC) of the same compound?
**A.** 1.99 µM

**Q.** What about the TGI (HOP-62 NSCLC) of the same compound?
**A.** 8.35 µM

**Q.** And the GI50 (HOP-92 NSCLC)?
**A.** 2.56 µM

**Q.** And the TGI (HOP-92 NSCLC)?
**A.** 7.12 µM

**Q.** And the GI50 (HS 578T breast)?
**A.** 4.29 µM

**Q.** What about the TGI (HS 578T breast) of the same compound?
**A.** 27.6 µM

**Q.** What about the GI50 (HT29 colon) of the same compound?
**A.** 0.853 µM

**Q.** And the TGI (HT29 colon)?
**A.** 2.97 µM

**Q.** What about the GI50 (IGROV1 ovarian) of the same compound?
**A.** 3.3 µM

**Q.** What about the TGI (IGROV1 ovarian) of the same compound?
**A.** 11.2 µM

**Q.** What about the GI50 (K-562 leukemia) of the same compound?
**A.** 1.02 µM

**Q.** What about the TGI (K-562 leukemia) of the same compound?
**A.** > 100 µM

**Q.** What about the GI50 (KM12 colon) of the same compound?
**A.** 0.709 µM

**Q.** And the TGI (KM12 colon)?
**A.** 4.03 µM

**Q.** And the GI50 (LOX IMVI melanoma)?
**A.** 0.356 µM

**Q.** What about the TGI (LOX IMVI melanoma) of the same compound?
**A.** 1.54 µM

**Q.** And the GI50 (M14 melanoma)?
**A.** 2.79 µM

**Q.** And the TGI (M14 melanoma)?
**A.** 11 µM

**Q.** What about the GI50 (MALME-3M melanoma) of the same compound?
**A.** 3.05 µM

**Q.** And the TGI (MALME-3M melanoma)?
**A.** 8.81 µM

**Q.** What about the GI50 (MCF7 breast) of the same compound?
**A.** 0.368 µM

**Q.** And the TGI (MCF7 breast)?
**A.** 12.2 µM

**Q.** And the GI50 (MDA-MB-231 breast)?
**A.** 3.12 µM

**Q.** What about the TGI (MDA-MB-231 breast) of the same compound?
**A.** 8.95 µM

**Q.** And the GI50 (MDA-MB-435)?
**A.** 0.862 µM

**Q.** What about the TGI (MDA-MB-435) of the same compound?
**A.** 2.37 µM

**Q.** What about the GI50 (MOLT-4 leukemia) of the same compound?
**A.** 2.78 µM

**Q.** What about the TGI (MOLT-4 leukemia) of the same compound?
**A.** 12.8 µM

**Q.** What about the GI50 (NCI-H226 lung) of the same compound?
**A.** 2.57 µM

**Q.** And the TGI (NCI-H226 lung)?
**A.** 7.84 µM

**Q.** What about the GI50 (NCI-H23 lung) of the same compound?
**A.** 2 µM
